Our source for the IC50 values is patent US11351178B2, “Selective HDAC6 inhibitors” (ITALFARMACO S.P.A., priority 2017, dated 2022).

By IC50 is commonly meant the concentration needed to halve the response being measured.

The test deals with T1, recombinant human HDAC6 (Homo sapiens, UniProt Q9UBN7).
T1 sequence (Q9UBN7 1-1215): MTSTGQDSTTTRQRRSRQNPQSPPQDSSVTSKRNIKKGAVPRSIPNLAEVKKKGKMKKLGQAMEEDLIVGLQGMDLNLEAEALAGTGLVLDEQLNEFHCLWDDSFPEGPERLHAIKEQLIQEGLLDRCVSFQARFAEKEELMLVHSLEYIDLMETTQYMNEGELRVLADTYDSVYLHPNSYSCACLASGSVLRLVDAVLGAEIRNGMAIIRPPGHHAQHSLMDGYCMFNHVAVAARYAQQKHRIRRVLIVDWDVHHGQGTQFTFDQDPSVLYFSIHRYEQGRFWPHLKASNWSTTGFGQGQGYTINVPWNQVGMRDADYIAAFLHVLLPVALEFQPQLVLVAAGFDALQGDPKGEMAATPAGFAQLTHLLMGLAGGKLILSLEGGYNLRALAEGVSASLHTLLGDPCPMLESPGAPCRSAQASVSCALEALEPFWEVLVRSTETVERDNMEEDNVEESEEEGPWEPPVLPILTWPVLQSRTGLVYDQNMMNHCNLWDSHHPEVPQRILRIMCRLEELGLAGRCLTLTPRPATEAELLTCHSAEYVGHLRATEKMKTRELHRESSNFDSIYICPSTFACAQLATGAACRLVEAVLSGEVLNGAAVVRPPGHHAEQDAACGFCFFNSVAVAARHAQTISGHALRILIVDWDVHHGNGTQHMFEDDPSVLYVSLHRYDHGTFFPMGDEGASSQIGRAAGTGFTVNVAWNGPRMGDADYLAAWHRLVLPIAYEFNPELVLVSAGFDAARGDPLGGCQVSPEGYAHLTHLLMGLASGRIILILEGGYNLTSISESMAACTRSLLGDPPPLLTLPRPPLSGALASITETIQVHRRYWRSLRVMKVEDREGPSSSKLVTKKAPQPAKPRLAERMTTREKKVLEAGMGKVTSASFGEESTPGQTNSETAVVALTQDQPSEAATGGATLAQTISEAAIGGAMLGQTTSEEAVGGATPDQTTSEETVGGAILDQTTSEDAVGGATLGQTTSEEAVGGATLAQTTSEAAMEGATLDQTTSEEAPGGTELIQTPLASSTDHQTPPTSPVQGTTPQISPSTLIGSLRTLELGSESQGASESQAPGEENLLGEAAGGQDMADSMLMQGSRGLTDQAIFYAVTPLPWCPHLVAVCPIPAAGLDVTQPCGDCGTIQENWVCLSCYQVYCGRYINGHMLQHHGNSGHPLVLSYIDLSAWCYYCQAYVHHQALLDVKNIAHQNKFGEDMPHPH
Kind of test: Enzymatic screening on recombinant human HDAC6. The test is classed as biochemical. The settings on record: Table 2; read-out: HDAC6 IC50. The procedure:
Enzymatic activity on recombinant human HDAC6 and HDAC3 was evaluated (Table 2) for each synthesized compound.
After a period of incubation at 30° C. (incubation times vary for different isoforms and are shown in table 1) 25 μL of solution containing the substrate were added. As substrate, FLUOR DE LYS® deacetylase substrate (Enzo Life Sciences, cat #BML-K1104, FdL), FLUOR DE LYS®-Green substrate (Enzo Life Sciences, cat #BML-K1572 FdL_G) and trifluoroacetyl-L-lysine (Tfal)-2× concentrated solution in 25 mM Tris-HCl, pH 8, 130 mM NaCl 0.05% Tween-20 10% glycerol) were used. Following a reaction period at 30° C.
`COc1ccc(CCC(=O)N[C@@H](Cc2cscn2)c2nc(Cc3ccc(C(=O)NO)cc3)no2)cc1OC` [comp. 21, 3-(3,4-dimethoxyphenyl)-N-[(1S)-1-[3-[[4-(hydroxycarbamoyl)phenyl]methyl]-1,2,4-oxadiazol-5-yl]-2-thiazol-4-yl-ethyl]propanamide]: the IC50 was 116 nM.
Under `O=C(NO)c1ccc(Sc2nnc(-c3ccccc3)n2-c2ccccc2)cc1` [comp. 24, 4-[(4,5-diphenyl-1,2,4-triazol-3-yl)sulfanyl]benzenecarbohydroxamic acid] stands 56 nM.
Under `COc1ccc(Cc2nnc(-c3ccc(C(=O)NO)cc3)o2)cc1OC` [comp. 26, 4-[5-[(3,4-dimethoxyphenyl)methyl]-1,3,4-oxadiazol-2-yl]benzenecarbohydroxamic acid] stands 258 nM.
As for `O=C(NO)c1ccc(Sc2nnc(Cc3ccccc3)n2-c2ccc(F)cc2)cc1` [comp. 27, 4-[[5-benzyl-4-(4-fluorophenyl)-1,2,4-triazol-3-yl]sulfanyl]benzenecarbohydroxamic acid;2,2,2-trifluoroacetic acid], the figure is 77 nM; as for `O=C(NO)c1ccc(Cn2nnc(-c3ccc(Cl)s3)n2)cc1` [comp. 32, 4-[[5-(5-chloro-2-thienyl)tetrazol-2-yl]methyl]benzenecarbohydroxamic acid], 6 nM; as for `O=C(NO)c1ccc(Cn2nnc(-c3ccc(F)cc3)n2)cc1` [comp. 34, 4-[[5-(4-fluorophenyl)tetrazol-2-yl]methyl]benzenecarbohydroxamic acid], 7 nM.
For the molecule `COc1ccc(-c2nnn(Cc3ccc(C(=O)NO)cc3)n2)cc1` [comp. 35, 4-[[5-(4-methoxyphenyl)tetrazol-2-yl]methyl]benzenecarbohydroxamic acid], the 50% inhibitory concentration (IC50) was found to be 5 nM.
As for `Cc1ccc(-c2nnn(Cc3ccc(C(=O)NO)cc3)n2)s1` [comp. 41, 4-[[5-(5-methyl-2-thienyl)tetrazol-2-yl]methyl]benzenecarbohydroxamic acid], the figure is 4 nM.
As for `O=C(NO)c1ccc(Cn2nnc(-c3scc4c3OCCO4)n2)cc1` [comp. 43, 4-[[5-(2,3-dihydrothieno[3,4-b][1,4]dioxin-5-yl)tetrazol-2-yl]methyl]benzenecarbohydroxamic acid], the figure is 3 nM.
Turning to `O=C(NO)c1ccc(Cn2nnc(-c3ccccc3F)n2)cc1` [comp. 46, 4-[[5-(2-fluorophenyl)tetrazol-2-yl]methyl]benzenecarbohydroxamic acid], the IC50 was 5 nM.
On to `N[C@@H](Cc1cscn1)c1nc(Cc2ccc(C(=O)NO)cc2)no1` [comp. 48, (S)-4-((5-(1-amino-2-(thiazol-4-yl)ethyl)-1,2,4-oxadiazol-3-yl)methyl)-N-hydroxybenzamide 2,2,2-trifluoroacetate], for which the 50% inhibitory concentration (IC50) stood at 257 nM.
Under `O=C(NO)c1ccc(Cc2nc(-c3ccc(Cl)cc3)nn2Cc2ccccc2)cc1` [comp. 51, 4-[[2-benzyl-5-(4-chlorophenyl)-1,2,4-triazol-3-yl]methyl]benzenecarbohydroxamic acid] stands 368 nM.
Under `O=C(NO)c1ccc(Cc2nc(-c3cccs3)nn2-c2ccccn2)cc1` [comp. 52, 4-[[2-(2-pyridyl)-5-(2-thienyl)-1,2,4-triazol-3-yl]methyl]benzenecarbohydroxamic acid] stands 344 nM.
As for `COc1ccccc1-n1nc(-c2cccs2)nc1Cc1ccc(C(=O)NO)cc1` [comp. 53, 4-[[2-(2-methoxyphenyl)-5-(2-thienyl)-1,2,4-triazol-3-yl]methyl]benzenecarbohydroxamic acid], the figure is 333 nM.
As to `O=C(NO)c1ccc(Nc2nnc(-c3ccccc3)o2)cc1` [comp. 60, 4-[(5-phenyl-1,3,4-oxadiazol-2-yl)amino]benzenecarbohydroxamic acid], the IC50 was 136 nM.
Under `O=C(NO)c1ccc(Nc2nnc(-c3cccc(S(=O)(=O)N4CCCC4)c3)o2)cc1` [comp. 63, 4-[[5-(3-pyrrolidin-1-ylsulfonylphenyl)-1,3,4-oxadiazol-2-yl]amino]benzenecarbohydroxamic acid] stands 682 nM; under `O=C(NO)c1ccc(Cc2nnc(-c3cccc(S(=O)(=O)N4CCOCC4)c3)o2)cc1` [comp. 64, 4-[[5-(3-morpholinosulfonylphenyl)-1,3,4-oxadiazol-2-yl]methyl]benzenecarbohydroxamic acid], 13 nM.
For the molecule `O=C(NO)c1ccc(Cc2nnc(-c3ccc(S(=O)(=O)N4CCCC4)cc3)o2)cc1` [comp. 69, 4-[[5-(4-pyrrolidin-1-ylsulfonylphenyl)-1,3,4-oxadiazol-2-yl]methyl]benzenecarbohydroxamic acid], the IC50 was 11 nM.
As for `O=C(NO)c1ccc(Sc2nc(C3CC3)n(-c3ccccc3)n2)cc1` [comp. 72, 4-[(5-cyclopropyl-1-phenyl-1,2,4-triazol-3-yl)sulfanyl]benzenecarbohydroxamic acid], the figure is 162 nM; as for `CN(C)c1ccc(-c2nnc(Sc3ccc(C(=O)NO)cc3)n2C)cc1` [comp. 73, 4-[[5-[4-(dimethylamino)phenyl]-4-methyl-1,2,4-triazol-3-yl]sulfanyl]benzenecarbohydroxamic acid], 8 nM; as for `O=C(NO)c1ccc(Cn2nnnc2-c2ccco2)cc1` [comp. 86, 4-[[5-(2-furyl)tetrazol-1-yl]methyl]benzenecarbohydroxamic acid], 39 nM.
As for `O=C(NO)c1ccc(Cn2nnnc2-c2nccc3ccccc23)cc1` [comp. 88, 4-[[5-(1-isoquinolyl)tetrazol-1-yl]methyl]benzenecarbohydroxamic acid], the figure is 2 nM.
As for `O=C(NO)c1ccc(Cn2nnc(-c3ccc4ccccc4n3)n2)cc1` [comp. 90, 4-[[5-(2-quinolyl)tetrazol-2-yl]methyl]benzenecarbohydroxamic acid], the figure is 20 nM; as for `O=C(NO)c1cc(F)c(Sc2nnc(-c3cccs3)[nH]2)c(F)c1` [comp. 97, 3,5-difluoro-4-[[5-(2-thienyl)-4H-1,2,4-triazol-3-yl]sulfanyl]benzenecarbohydroxamic acid], 51 nM.
Regarding `O=C(NO)c1ccc(Cn2nnc(-c3cccc(S(F)(F)(F)(F)F)c3)n2)cc1` [comp. 106, 4-[[5-[3-(pentafluoro-lambda6-sulfanyl)phenyl]tetrazol-2-yl]methyl]benzenecarbohydroxamic acid], the half-inhibitory concentration (IC50) was determined as 26 nM.
`O=C(NO)c1ccc(Cn2nnnc2-c2cccc(S(F)(F)(F)(F)F)c2)cc1` [comp. 107, 4-[[5-[3-(pentafluoro-lambda6-sulfanyl)phenyl]tetrazol-1-yl]methyl]benzenecarbohydroxamic acid]: the IC50 was 162 nM.
As for `O=C(NO)c1cc(F)c(Cn2nnc(-c3cccc(S(F)(F)(F)(F)F)c3)n2)c(F)c1` [comp. 108, 3,5-difluoro-4-[[5-[3-(pentafluoro-lambda6-sulfanyl)phenyl]tetrazol-2-yl]methyl]benzenecarbohydroxamic acid], the figure is 108 nM; as for `O=C(NO)c1ccc(Cn2nnnc2-c2ccc(S(F)(F)(F)(F)F)cc2)cc1` [comp. 111, 4-[[5-[4-(pentafluoro-lambda6-sulfanyl)phenyl]tetrazol-1-yl]methyl]benzenecarbohydroxamic acid], 271 nM.
